Patent US8470806B2, “Perhexiline for treating chronic heart failure” (Heart Metabolics Limited, priority 2004, dated 2013)

How the values were obtained:
patients with CHF [1] = assay: Resting echocardiography (LVEF, volumes, long-axis PSV, E:EA ratio); format: in vivo, human; conditions: for Long axis function: PSV of lateral mitral valve annulus
Method: Echocardiography was performed with patients in the left lateral decubitus position using a Vingmed System V echocardiographic machine and a 2.5 MHz transducer. Images were stored digitally. Resting scans were acquired using standard echocardiographic windows for LVEF, transmitral valve Doppler, and resting tissue Doppler. […] Left ventricular volumes for calculation of LVEF were obtained using biplane echocardiography and the modified Simpson's formula. Volumes were averaged over 3 beats. In addition, on-line tissue Doppler peak systolic velocity (PSV) of the lateral mitral valve annulus was obtained as a reflection of left ventricular long-axis function. In theory, improving metabolic efficiency would also lead to an improvement in diastolic function of the left ventricle as energy is also required for cardiac relaxation. The ratio of peak E wave from transmitral valve Doppler vs. the E wave from tissue Doppler of the lateral mitral valve annulus (E:EA ratio) is a sensitive indicator of left ventricular end diastolic pressure (19). […] The primary end-point for this study was pre-defined as VO2 max with the following secondary endpoints: MLHFQ score, LVEF, E:EA ratio, resting, low dose and high dose mean PSV during stress echocardiography and PCr t½. Therapy randomization of the ischemic and non-ischemic groups occurred separately but with similar protocols in order to allow for pre-hoc analysis of the primary endpoint in each group. […] Data were analyzed with SPSS 11.5 for Windows® and expressed as mean±standard error of mean. ANCOVA using baseline values as covariates was performed to test for significance of differences seen in the perhexiline vs. placebo groups following treatment.

[2] = test system: patients with CHF (ischemic group); assay: Tissue Doppler / dobutamine stress echocardiography, ischemic group; format: in vivo, human; parameters: Mean PSV (15 segments): unit not given beside the values
Method: Tissue Doppler assessment of the left ventricle was performed at rest and analysed off-line using Echopac software in order to determine regional myocardial PSV from 15 left ventricular segments described in detail elsewhere (20). These segments were selected to include all areas supplied by the three major coronary arteries and for the greatest reproducibility for acquisition of PSV (21). (See FIG. 4) Following resting echocardiography dobutamine infusion was commenced via a syringe driver and incremented at 3 minute intervals from 5 mcg/kg/min to 10, 20, 30 and 40 mcg/kg/min. Digital loops of 15 views outlined above were stored at 90 seconds of each stage. Up to 1 mg of atropine was given if the hemodynamic response was submaximal. Electrocardiograms and blood pressure were monitored at each stage. End-points for termination of the test were attainment of ≧85% of the target heart rate, evidence of ischemia, or severe side effects from dobutamine. Data from all stages were analysed off-line as with the resting images. PSV data are expressed as velocity at rest, low dose dobutamine infusion ([…]) and peak dose dobutamine infusion (the last infusion stage before infusion terminated, which may include the addition of atropine).

patients with CHF [3] = assay: Cardiopulmonary exercise test (treadmill, Weber protocol, respiratory gas analysis); format: in vivo, human; conditions: for VO2max: mean ± SEM
From the text: An embodiment of the invention will now be described by way of example only wherein a double-blind, randomised, placebo-controlled study was undertaken in order to investigate the effects of perhexiline on chronic heart failure. 56 patients with CHF were recruited and all provided written informed consent. Entry criteria were as follows: left ventricular ejection fraction (LVEF) <40%, optimally medicated heart failure with New York Heart Association (NYHA) Class II-III symptoms. Cardiopulmonary exercise testing with respiratory gas analysis, completion of the Minnesota Living with Heart Failure Questionnaire (MLHFQ) and 2-D echocardiography were performed at baseline on all patients. Incremental exercise testing with assessment of respiratory gas exchange was performed on a treadmill using the Weber protocol. Breath by breath respiratory gases were measured during exercise using a Pulmolab EX670 system mass spectrometer which was calibrated before every study. Raw data were averaged to 30 second intervals and oxygen consumption during peak exercise was obtained (VO2 max; ml/kg/min). Electrocardiograms and blood pressure were monitored throughout. Exercise was terminated at the subject's request due to fatigue or breathlessness. […] The primary end-point for this study was pre-defined as VO2 max with the following secondary endpoints: MLHFQ score, LVEF, E:EA ratio, resting, low dose and high dose mean PSV during stress echocardiography and PCr t½. Therapy randomization of the ischemic and non-ischemic groups occurred separately but with similar protocols in order to allow for pre-hoc analysis of the primary endpoint in each group. […] Data were analyzed with SPSS 11.5 for Windows® and expressed as mean±standard error of mean. ANCOVA using baseline values as covariates was performed to test for significance of differences seen in the perhexiline vs. placebo groups following treatment.

Serum perhexiline levels = format: in vivo; conditions: human
patients with CHF [4] = assay: NYHA class before and after treatment; format: in vivo, human
Method: 56 patients with CHF were recruited and all provided written informed consent. Entry criteria were as follows: left ventricular ejection fraction (LVEF) <40%, optimally medicated heart failure with New York Heart Association (NYHA) Class II-III symptoms. Cardiopulmonary exercise testing with respiratory gas analysis, completion of the Minnesota Living with Heart Failure Questionnaire (MLHFQ) and 2-D echocardiography were performed at baseline on all patients.

patients with CHF [5] = assay: Minnesota Living with Heart Failure Questionnaire (MLHFQ); format: in vivo, human; conditions: for Minnesota living with heart failure questionnaire score: higher score = poorer quality of life
Method: A standard 21-question MLHFQ was employed to determine if perhexiline affected patient quality of life. This is a well validated measure of symptomatology in heart failure (17) and includes questions to assess the ability to perform activities of daily living as well as questions gauging the severity of symptoms due to heart failure. Each question was scored out of 5. The sum of the scores were calculated where a higher score indicated a poorer quality of life. All patients completed the questionnaires alone and without assistance. […] The primary end-point for this study was pre-defined as VO2 max with the following secondary endpoints: MLHFQ score, LVEF, E:EA ratio, resting, low dose and high dose mean PSV during stress echocardiography and PCr t½. Therapy randomization of the ischemic and non-ischemic groups occurred separately but with similar protocols in order to allow for pre-hoc analysis of the primary endpoint in each group. […] Data were analyzed with SPSS 11.5 for Windows® and expressed as mean±standard error of mean. ANCOVA using baseline values as covariates was performed to test for significance of differences seen in the perhexiline vs. placebo groups following treatment.

patients with CHF [6] = assay: Safety and tolerability in the 8-week study (side effects, corrected QT, liver function, neuropathy)
Method: Following baseline studies, patients were randomized in a double-blind fashion to receive either perhexiline (n=28) or placebo (n=28) 100 mg twice daily. Blood was obtained at 1, 4, and 8 weeks after initiation of the drug for measurements of serum perhexiline levels with subsequent dose titration in order to prevent toxicity. Dose adjustments were advised as per a standard protocol by an unblinded physician. Identical dosage adjustments were also made for randomly allocated placebo-treated patients by the unblinded observer in order to ensure blinding of the investigators was maintained. After 8 weeks of treatment, patients were re-evaluated as above.

[7] = Post, after 8 weeks of treatment
[8] = all patients of the perhexiline group, 8 weeks

SMILES: C1CCC(C(CC2CCCCN2)C2CCCCC2)CC1 (centres unmarked) [Perhexiline, 2-(2,2-dicyclohexylethyl)piperidine]
- increase of mean LVEF following treatment (patients with CHF [1]; 8 weeks): 9.9 ± 2.0 absolute percentage points
- relative increase of mean LVEF (patients with CHF [1]; 8 weeks): 42%
- E:EA Ratio (patients with CHF [1]; Post, after 8 weeks): 6.5 ± 0.9
- Left ventricular ejection fraction (patients with CHF [1]; Post, after 8 weeks): 34 ± 2 %
- Left ventricular end-diastolic volume (patients with CHF [1]; Post, after 8 weeks): 212 ± 9 mL
- Left ventricular end-systolic volume (patients with CHF [1]; Post, after 8 weeks): 140 ± 8 mL
- Long axis function (patients with CHF [1]; Post, after 8 weeks): 7.2 ± 0.6^|| cm/s
- E:EA Ratio (patients with CHF [1]; Pre (baseline)): 8.6 ± 0.6
- Left ventricular ejection fraction (patients with CHF [1]; Pre (baseline)): 24 ± 1%
- Left ventricular end-diastolic volume (patients with CHF [1]; Pre (baseline)): 232 ± 11 mL
- Left ventricular end-systolic volume (patients with CHF [1]; Pre (baseline)): 176 ± 8 mL
- Long axis function (patients with CHF [1]; Pre (baseline)): 5.8 ± 0.4 cm/s
- Mean PSV (15 segments) ([2]; Low Dose dobutamine, Post): 5.0 ± 0.5
- Mean PSV (15 segments) ([2]; Low Dose dobutamine, Pre): 4.7 ± 0.3
- Mean PSV (15 segments) ([2]; Peak Dose dobutamine, Post): 8.2 ± 0.8
- Mean PSV (15 segments) ([2]; Peak Dose dobutamine, Pre): 6.6 ± 0.5
- Mean PSV (15 segments) ([2]; Rest, Post): 3.8 ± 0.2
- Mean PSV (15 segments) ([2]; Rest, Pre): 3.3 ± 0.2
- increase in peak dose PSV ([2]; ischemic cohort, peak dose dobutamine, 8 weeks): 24%
- increase in resting mean PSV following treatment ([2]; ischemic cohort, rest, 8 weeks): 15%
- Exercise Time (patients with CHF [3]; [7]): 12.3 ± 1.1 min
- VO2max (patients with CHF [3]; [7]): 18.8 ± 1.1 mL/min/kg
- Exercise Time (patients with CHF [3]; Pre (baseline)): 10.5 ± 1.2 min
- VO2max (patients with CHF [3]; Pre (baseline), perhexiline group): 16.1 ± 0.6 mL/min/kg
- increase in VO2 max following treatment (patients with CHF [3]; [8]): 2.7 ± 0.8 mL/min/kg
- increase in VO2 max following treatment (relative) (patients with CHF [3]; [8]): 16.7%
- increase in VO2 max (patients with CHF [3]; ischemic group, 8 weeks): 2.9 ± 1.2 mL/min/kg
- increase in VO2 max (patients with CHF [3]; non-ischemic group, 8 weeks): 2.5 ± 0.4 mL/min/kg
- concentration at 1 week (Serum perhexiline levels; Week 1, 100 mg twice daily with dose titration): 570 ± 190 ng/mL
- concentration at 4 weeks (Serum perhexiline levels; Week 4, 100 mg twice daily with dose titration): 670 ± 200 ng/mL
- concentration at 8 weeks (Serum perhexiline levels; Week 8, 100 mg twice daily with dose titration): 430 ± 120 ng/mL
- NYHA Class (patients with CHF [4]; Post, after 8 weeks): 1.9 ± 0.2^+
- NYHA Class (patients with CHF [4]; Pre (baseline)): 2.4 ± 0.1
- reduction of MLHFQ scores following treatment (patients with CHF [5]; 8 weeks): 24.4%
- Minnesota living with heart failure questionnaire score (patients with CHF [5]; Post, after 8 weeks): 34 ± 5
- Minnesota living with heart failure questionnaire score (patients with CHF [5]; Pre (baseline)): 45 ± 5
- deaths during the study period (patients with CHF [6]; 8-week course): no deaths in either group
- Corrected QT Interval (patients with CHF [6]; Post, after 8 weeks): 413 ± 13 ms
- Corrected QT Interval (patients with CHF [6]; Pre (baseline)): 413 ± 11 ms
- Side effects (patients with CHF [6]; perhexiline group, 8-week course): restricted to transient nausea and dizziness during the first week of treatment
- abnormal liver function tests or neuropathy (patients with CHF [6]; with close serum level monitoring and titration): None of the patients in this study developed abnormal liver function tests or neuropathy
